Results published in ChEMBL document CHEMBL1146775 (2004).
The source made the active and inactive calls.

Key:
[1] = molecular target: Muscarinic acetylcholine receptor M3 (Cavia porcellus) (UniProt Q8VH26); conditions: Ileum
[2] = Maximal rate of vascular endothelium-dependent relaxation at the concentration of 10E-5 M/L; […]; conditions: Oryctolagus cuniculus
[3] = Maximal rate of vascular endothelium-dependent relaxation at the concentration of 10E-5 M/L; 30-50%; conditions: Oryctolagus cuniculus
[4] = Maximal rate of vascular endothelium-dependent relaxation at the concentration of 10E-5 M/L; 0-10%; conditions: Oryctolagus cuniculus
[5] = Maximal rate of vascular endothelium-dependent relaxation at the concentration of 10E-5 M/L; - = no activity; conditions: Oryctolagus cuniculus
[6] = Maximal rate of vascular endothelium-dependent relaxation at the concentration of 10E-5 M/L; conditions: Oryctolagus cuniculus
[7] = organism: Rattus norvegicus; assay: Rate of relaxation of Atropine treated rat aorta; type: functional
[8] = organism: Rattus norvegicus; assay: Rate of relaxation of Indomethacin treated rat aorta; type: functional
[9] = organism: Rattus norvegicus; assay: Rate of relaxation of L-NAME treated rat aorta; type: functional
[10] = organism: Rattus norvegicus; assay: Rate of relaxation of endothelium denuded rat aorta; type: functional
[11] = organism: Rattus norvegicus; assay: Rate of relaxation of endothelium intact rat aorta; type: functional
[12] = organism: Oryctolagus cuniculus; assay: Vascular relaxation of rabbit carotid model (high lipid diet) at 0.1 M/L concentration; type: functional
[13] = tested on: Oryctolagus cuniculus; assay: Vascular relaxation of rabbit carotid model at 0.1 M/L concentration with 5 mg/kg PPVP; type: functional

Sequence of Muscarinic acetylcholine receptor M3 (Cavia porcellus) (Q8VH26 1-587): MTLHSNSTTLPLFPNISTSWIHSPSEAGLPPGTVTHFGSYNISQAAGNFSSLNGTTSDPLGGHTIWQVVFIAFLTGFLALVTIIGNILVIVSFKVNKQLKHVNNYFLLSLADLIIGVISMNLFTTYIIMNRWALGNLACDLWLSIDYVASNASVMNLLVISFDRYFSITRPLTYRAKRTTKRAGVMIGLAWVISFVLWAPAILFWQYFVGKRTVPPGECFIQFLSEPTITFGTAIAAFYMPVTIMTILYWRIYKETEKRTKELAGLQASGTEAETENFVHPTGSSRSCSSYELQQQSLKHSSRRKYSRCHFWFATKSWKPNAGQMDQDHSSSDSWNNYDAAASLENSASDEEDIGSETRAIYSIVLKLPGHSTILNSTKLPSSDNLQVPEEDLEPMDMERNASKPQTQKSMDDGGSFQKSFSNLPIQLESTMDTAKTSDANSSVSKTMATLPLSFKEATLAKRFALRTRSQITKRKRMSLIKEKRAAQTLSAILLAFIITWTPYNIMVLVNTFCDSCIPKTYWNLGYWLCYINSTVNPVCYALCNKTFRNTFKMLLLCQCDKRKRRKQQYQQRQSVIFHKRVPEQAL

## Cc1ccc(C(C#N)N2CCOCC2)cc1 (stereo not drawn)
[1]
  Contraction: inactive
[2]
  Relaxation: 30%

## C#CCN1CCN(C)CC1
[1]
  Contraction: inactive
[2]
  Relaxation: 30%

## C=CCN1CCN(C)CC1
[2]
  Relaxation: 30%

## N#CCN1CCOCC1
[1]
  Contraction: inactive
[3]
  Relaxation: 50%

## N#CC(c1ccc(F)cc1)N1CCOCC1 (stereo not drawn)
[1]
  Contraction: inactive
[2]
  Relaxation: 30%

## Cc1ccccc1C(C#N)N1CCN(C)CC1 (stereo not drawn)
[1]
  Contraction: inactive
[4]
  Relaxation: 10%

## COC(=O)CCCCN1CCOCC1
[1]
  Contraction: inactive
[3]
  Relaxation: 50%

## N#CC(NCc1ccccc1)c1ccc2c(c1)OCO2 (stereo not drawn)
[1]
  Contraction: inactive
[4]
  Relaxation: 10%

## CN1CCN(C(C#N)c2ccc3c(c2)OCO3)CC1 (stereo not drawn)
[1]
  Contraction: inactive
[2]
  Relaxation: 30%

## CCOP(=O)(OCC)C(c1cc([N+](=O)[O-])ccc1O)N1CCOCC1 (stereo not drawn)
[1]
  Contraction: inactive
[2]
  Relaxation: 30%

## CCOP(=O)(OCC)C(c1ccc(O)cc1)N1CCN(c2ccccn2)CC1 (stereo not drawn)
[1]
  Contraction: inactive
[4]
  Relaxation: 10%

## N#CC(c1ccccc1F)N1CCOCC1 (stereo not drawn)
[1]
  Contraction: inactive
[2]
  Relaxation: 30%

## COC(=O)C1CC2C(=O)C=CC1N2Cc1ccccc1 (stereo not drawn)
[1]
  Contraction: inactive
[4]
  Relaxation: 10%

## N#CC(c1ccc(Cl)c(F)c1)N1CCOCC1 (stereo not drawn)
[1]
  Contraction: inactive
[5]
  Relaxation: inactive

## CN1CCN(Cc2nn[nH]n2)CC1
[1]
  Contraction: inactive
[2]
  Relaxation: 30%

## CN1CCN(CC(=O)Nc2c(Cl)cccc2Cl)CC1
[1]
  Contraction: inactive
[4]
  Relaxation: 10%

## COC(=O)CCCN1CCOCC1
[1]
  Contraction: inactive
[5]
  Relaxation: inactive

## CCOP(=O)(OCC)C(c1ccc(O)c(OC)c1[N+](=O)[O-])N1CCOCC1 (stereo not drawn)
[1]
  Contraction: inactive
[4]
  Relaxation: 10%

## CCOP(=O)(OCC)C(c1ccc(O)c(OC)c1[N+](=O)[O-])N1CCN(C)CC1 (stereo not drawn)
[1]
  Contraction: inactive
[4]
  Relaxation: 10%

## O=C(CN1CCOCC1)Nc1c(Cl)cccc1Cl
[1]
  Contraction: inactive
[2]
  Relaxation: 30%

## CCOP(=O)(OCC)C(c1cc(OC)c(O)c(OC)c1)N1CCOCC1 (stereo not drawn)
[1]
  Contraction: inactive
[3]
  Relaxation: 50%

## CN1C2CC=C(C#N)C1CC2 (stereo not drawn)
[1]
  Contraction: inactive
[4]
  Relaxation: 10%

## CCOP(=O)(OCC)C(c1ccc(O)c(OC)c1)N1CCOCC1 (stereo not drawn)
[1]
  Contraction: inactive
[2]
  Relaxation: 30%

## CNC(=O)CCN1CCCCC1
[1]
  Contraction: inactive
[5]
  Relaxation: inactive

## CN1CCN(CCC#N)CC1
[1]
  Contraction: inactive
[5]
  Relaxation: inactive

## N#CCCN1CCOCC1
[1]
  Contraction: inactive
[5]
  Relaxation: inactive

## CN1CCN(CCC(N)=O)CC1
[1]
  Contraction: inactive
[5]
  Relaxation: inactive

## O=C(CCN1CCOCC1)c1ccc([N+](=O)[O-])cc1
[1]
  Contraction: inactive
[2]
  Relaxation: 30%

## CCOC(=O)CN1CCN(C)CC1
[1]
  Contraction: inactive
[2]
  Relaxation: 30%

## N#CC(NCc1ccccc1)c1ccco1 (stereo not drawn)
[1]
  Contraction: inactive
[4]
  Relaxation: 10%

## CNC(=O)CCN1CCOCC1
[1]
  Contraction: inactive
[5]
  Relaxation: inactive

## CCOP(=O)(OCC)C(c1cc(OC)c(O)c(OC)c1)N1CCN(C)CC1 (stereo not drawn)
[1]
  Contraction: inactive
[2]
  Relaxation: 30%

## NC(=O)CCN1CCOCC1
[1]
  Contraction: inactive
[5]
  Relaxation: inactive

## Cc1ccccc1C(C#N)N1CCOCC1 (stereo not drawn)
[1]
  Contraction: inactive
[2]
  Relaxation: 30%

## N#CC1CN(Cc2ccccc2)CCN1Cc1ccccc1 (stereo not drawn)
[1]
  Contraction: inactive
[2]
  Relaxation: 30%

## N#CCCN1CCCCC1
[1]
  Contraction: inactive
[5]
  Relaxation: inactive

## CN1CCN(C(C#N)c2ccccc2F)CC1 (stereo not drawn)
[1]
  Contraction: inactive
[3]
  Relaxation: 50%

## COc1cc(C(C#N)N2CCN(C)CC2)cc(OC)c1OC (stereo not drawn)
[1]
  Contraction: inactive
[6]
  Relaxation: > 50%

## COC(=O)[C@@H]1C[C@@H](O)CN1
[1]
  Contraction: inactive
[2]
  Relaxation: 30%

## CN1CCN(C(C#N)c2ccc(F)cc2)CC1 (stereo not drawn)
[1]
  Contraction: inactive
[3]
  Relaxation: 50%

## N#CC(c1ccc2c(c1)OCO2)N1CCOCC1 (stereo not drawn)
[1]
  Contraction: inactive
[2]
  Relaxation: 30%

## CN1CCN(C(C#N)c2cccc(F)c2)CC1 (stereo not drawn)
[1]
  Contraction: inactive
[3]
  Relaxation: 50%

## Cc1cccc(C(C#N)N2CCOCC2)c1 (stereo not drawn)
[1]
  Contraction: inactive
[2]
  Relaxation: 30%

## N#CC(c1ccco1)N1CCOCC1 (stereo not drawn)
[1]
  Contraction: inactive
[4]
  Relaxation: 10%

## CCOP(=O)(OCC)C(c1cc(Br)cc(Br)c1O)N1CCN(c2ccccn2)CC1 (stereo not drawn)
[1]
  Contraction: inactive
[2]
  Relaxation: 30%

## CCOP(=O)(OCC)C(c1ccc(O)c(OC)c1)N1CCN(c2ccccn2)CC1.Cl (stereo not drawn)
[7]
  Relaxation: 85.7%
[8]
  Relaxation: 23.8%
[9]
  Relaxation: 28.8%
[10]
  Relaxation: 13.9%
[11]
  Relaxation: 81.4%
[1]
  Contraction: inactive
[6]
  Relaxation: > 50%

## CCOP(=O)(OCC)C(c1cc(OC)c(O)c(OC)c1)N1CCN(c2ccccn2)CC1.Cl (stereo not drawn)
[7]
  Relaxation: 82.6%
[8]
  Relaxation: 14.2%
[9]
  Relaxation: 26.2%
[10]
  Relaxation: 5.7%
[11]
  Relaxation: 84%
[1]
  Contraction: inactive
[6]
  Relaxation: > 50%

## Cc1ccc(C(C#N)N2CCN(C)CC2)cc1 (stereo not drawn)
[1]
  Contraction: inactive
[2]
  Relaxation: 30%

## CN1CCN(CC#N)CC1
[1]
  Contraction: inactive
[3]
  Relaxation: 50%

## O=C1CN2CCC1CC2
[1]
  Contraction: inactive
[5]
  Relaxation: inactive

## N#CC(c1cccc(F)c1)N1CCOCC1 (stereo not drawn)
[1]
  Contraction: inactive
[3]
  Relaxation: 50%

## COC(=O)CCN1CCCCC1
[1]
  Contraction: inactive
[4]
  Relaxation: 10%

## COc1cc(C(C#N)N2CCN(C)CC2)c([N+](=O)[O-])cc1OC (stereo not drawn)
[1]
  Contraction: inactive
[6]
  Relaxation: > 50%

## CN1CCN(C(C#N)c2c(F)cccc2Cl)CC1 (stereo not drawn)
[1]
  Contraction: inactive
[2]
  Relaxation: 30%

## N#CC(c1c(F)cccc1Cl)N1CCOCC1 (stereo not drawn)
[1]
  Contraction: inactive
[4]
  Relaxation: 10%

## COc1cc(C(C#N)N2CCOCC2)cc(OC)c1OC (stereo not drawn)
[1]
  Contraction: inactive
[3]
  Relaxation: 50%

## CCOC(=O)CN1CCOCC1
[1]
  Contraction: inactive
[4]
  Relaxation: 10%

## N#CC1(O)CN2CCC1CC2 (stereo not drawn)
[1]
  Contraction: inactive
[5]
  Relaxation: inactive

## CN1CCN(C(C#N)c2cc3c(cc2Cl)OCO3)CC1 (stereo not drawn)
[1]
  Contraction: inactive
[4]
  Relaxation: 10%

## CCN(CC)CCC(=O)OC
[1]
  Contraction: inactive
[5]
  Relaxation: inactive

## Cc1cccc(C(C#N)N2CCN(C)CC2)c1 (stereo not drawn)
[1]
  Contraction: inactive
[4]
  Relaxation: 10%

## CCOP(=O)(OCC)C(c1ccc(O)c(OC)c1)N1CCN(C)CC1 (stereo not drawn)
[1]
  Contraction: inactive
[2]
  Relaxation: 30%

## CCOP(=O)(OCC)C(c1cc(Cl)cc(Cl)c1O)N1CCN(c2ccccn2)CC1 (stereo not drawn)
[1]
  Contraction: inactive
[6]
  Relaxation: > 50%

## C#CCN1CCOCC1
[1]
  Contraction: inactive
[5]
  Relaxation: inactive

## CCOP(=O)(OCC)C(c1ccc(O)cc1)N1CCOCC1 (stereo not drawn)
[1]
  Contraction: inactive
[4]
  Relaxation: 10%

## CN1C2CC=C(C(N)=O)C1CC2 (stereo not drawn)
[1]
  Contraction: inactive
[2]
  Relaxation: 30%

## N#CCN1CCCCC1
[1]
  Contraction: inactive

## CCOP(=O)(OCC)C(c1ccc(O)cc1)N1CCN(C)CC1 (stereo not drawn)
[1]
  Contraction: inactive
[2]
  Relaxation: 30%

## CN1CCN(C(C#N)c2ccco2)CC1 (stereo not drawn)
[1]
  Contraction: inactive
[4]
  Relaxation: 10%

## N#CC1CC2C(=O)C=CC1N2Cc1ccccc1 (stereo not drawn)
[1]
  Contraction: inactive
[5]
  Relaxation: inactive

## N#CC(c1ccccc1Cl)N1CCOCC1 (stereo not drawn)
[1]
  Contraction: inactive
[3]
  Relaxation: 50%

## CN1CCN(C(C#N)c2ccccc2Cl)CC1 (stereo not drawn)
[1]
  Contraction: inactive
[4]
  Relaxation: 10%

## CN1CCN(C(C#N)c2ccc(Cl)c(F)c2)CC1 (stereo not drawn)
[1]
  Contraction: inactive
[5]
  Relaxation: inactive

## COC(=O)CCN1CCN(C)CC1
[1]
  Contraction: inactive
[5]
  Relaxation: inactive

## COC(=O)C1CN(Cc2ccccc2)CCN1Cc1ccccc1 (stereo not drawn)
[1]
  Contraction: inactive
[2]
  Relaxation: 30%

## CCOP(=O)(OCC)C(c1cc([N+](=O)[O-])ccc1O)N1CCN(C)CC1 (stereo not drawn)
[1]
  Contraction: inactive
[2]
  Relaxation: 30%

## N#CC(c1cccs1)N1CCOCC1 (stereo not drawn)
[1]
  Contraction: inactive
[4]
  Relaxation: 10%

## CC(=O)OCC[N+](C)(C)C [ACETYLCHOLINE]
[12]
  Relaxation: 32.2%
[13]
  Relaxation: 65.9%

## O/N=C1\CN2CCC1CC2
[1]
  Contraction: inactive
[5]
  Relaxation: inactive

## CN1CCN(C(C#N)c2cccs2)CC1 (stereo not drawn)
[1]
  Contraction: inactive
[2]
  Relaxation: 30%
